Our source for the TGI and GI50 values is PubChem BioAssay (NCI).

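Briefly, cells in 96-well plates were exposed to five compound concentrations for 48 h, and endpoints were estimated by linear interpolation. GI50: concentration for 50% inhibition of growth. The concentration for full growth arrest is given as TGI.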 A value given as a limit tells only on which side of the number the result lay.

Some test systems named below: ACHN renal; SNB-75 CNS; OVCAR-8 ovarian; SN12C renal; UACC-257 melanoma; SNB-19 CNS; RPMI-8226 leukemia; COLO 205 colon; SK-OV-3 ovarian.
Experiment in all cases: NCI anticancer screen, dose series, 48 h

Consider `c1ccc(-c2csc3c2-n2cccc2C3N2CCCC2)cc1` (stereo not given), for which the TGI in the experiment on ACHN renal is more than 100 µM; with SNB-75 CNS, more than 100 µM; with OVCAR-8 ovarian it was more than 100 µM; with SN12C renal, more than 100 µM; in the experiment on UACC-257 melanoma, 39.9 µM; with SNB-19 CNS, more than 100 µM. In the experiment on RPMI-8226 leukemia, this compound registered a TGI of more than 100 µM.

Turning to `COc1ccccc1N1CCN(CCCCNC(=O)c2ccc([N+](=O)[O-])o2)CC1`, the TGI came out at 25.2 µM with ACHN renal; 6.79 µM in the experiment with COLO 205 colon; 45.6 µM in the experiment on OVCAR-8 ovarian; 17.4 µM with SN12C renal; 13.2 µM in the experiment with UACC-257 melanoma; 25.5 µM with SNB-19 CNS. The TGI in the experiment with SK-OV-3 ovarian was 56.7 µM; in the experiment on RPMI-8226 leukemia it was more than 68.4 µM.

Consider `O=[N+]([O-])c1cc(C2(N3CCCCC3)CCCCC2)sc1Br`, for which the TGI worked out at 11.5 µM in the experiment with ACHN renal; 17.7 µM in the experiment on COLO 205 colon; 24 µM in the experiment on OVCAR-8 ovarian; 21.8 µM in the experiment on SN12C renal; 4.51 µM with UACC-257 melanoma; 27.6 µM in the experiment with SNB-19 CNS. Moreover, the TGI in the experiment with SK-OV-3 ovarian was 31.2 µM; in the experiment with RPMI-8226 leukemia, 4.45 µM.

As for `CCOC(=O)Oc1cc2ccsc2c2c1c1ccccc1n2C(=O)OCC`, the TGI in the experiment with ACHN renal is 98.1 µM; in the experiment on SNB-75 CNS, more than 100 µM; in the experiment with COLO 205 colon it was more than 100 µM; in the experiment on OVCAR-8 ovarian it was more than 100 µM; in the experiment on SN12C renal it was more than 100 µM; in the experiment with UACC-257 melanoma it was more than 100 µM. For the same compound, the TGI was 84.9 µM with SK-OV-3 ovarian and more than 100 µM in the experiment with RPMI-8226 leukemia.

As to `CCOC(=O)COc1cc(-c2ccccc2F)nc2cc3c(cc12)OCO3`, the TGI in the experiment with ACHN renal, in the experiment with SNB-75 CNS, in the experiment with COLO 205 colon, with OVCAR-8 ovarian, in the experiment on SN12C renal and in the experiment on UACC-257 melanoma was more than 100 µM throughout. The TGI with SK-OV-3 ovarian and in the experiment on RPMI-8226 leukemia was more than 100 µM in each case.

Regarding `CC(NC(=O)Cc1ccc(OP(=O)(OCc2ccc([N+](=O)[O-])o2)N(C)CCCCCl)cc1)c1ccc(OCC2CCCCC2)c(C(N)=O)c1` (stereo not given), the TGI turned out to be 37.1 µM in the experiment on ACHN renal; 3.1 µM with COLO 205 colon; 16 µM in the experiment on OVCAR-8 ovarian; 4.26 µM with SN12C renal; 3.27 µM in the experiment on UACC-257 melanoma; 22.1 µM in the experiment with SNB-19 CNS. Besides, the values for the TGI in the experiment on SK-OV-3 ovarian and in the experiment on RPMI-8226 leukemia were 11 µM and 2.44 µM, respectively.

For the compound `Cc1ccc(Nc2c3c(c(C#N)c4nc5ccccc5n24)CCCC3)cc1`, the TGI is more than 100 µM with ACHN renal; 50.6 µM in the experiment on COLO 205 colon; more than 100 µM in the experiment with OVCAR-8 ovarian; 31.7 µM in the experiment on SN12C renal; 55 µM in the experiment with UACC-257 melanoma; more than 100 µM with SNB-19 CNS. The TGI in the experiment with SK-OV-3 ovarian is more than 100 µM.

On to `CN(C)CCCNC(=O)N/N=C/c1ccc(O)cc1`, for which the TGI in the experiment with ACHN renal, in the experiment on SNB-75 CNS, with COLO 205 colon, in the experiment on OVCAR-8 ovarian, in the experiment with SN12C renal and with UACC-257 melanoma was more than 100 µM each time. Besides, the TGI in the experiment on SNB-19 CNS and in the experiment on SK-OV-3 ovarian was more than 100 µM in each case.

With `C/C=C/CC(C(=O)OCC)(N(C)C(=O)OC(C)(C)C)S(=O)(=O)c1ccc(C)cc1` (stereo not given), the TGI in the experiment on ACHN renal, in the experiment on COLO 205 colon, in the experiment on OVCAR-8 ovarian, in the experiment on SN12C renal, with UACC-257 melanoma and with SNB-19 CNS was more than 100 µM each time. In the experiment with RPMI-8226 leukemia, this compound showed a TGI of more than 100 µM.

Turning to `O=C(O)c1cc2ccccc2c(Cc2c(O)c(C(=O)O)cc3ccccc23)c1O`, the TGI with ACHN renal, with OVCAR-8 ovarian, with SN12C renal, with UACC-257 melanoma, with SNB-19 CNS and in the experiment on RPMI-8226 leukemia was more than 100 µM each time.

Turning to `Cc1ccc(C2(O)c3ccccc3C(=O)N(C)C2(O)c2ccc(C)cc2)cc1` (stereo not given), the TGI in the experiment with COLO 205 colon is more than 100 µM; with OVCAR-8 ovarian, 90.9 µM; in the experiment on SN12C renal it was more than 100 µM; with UACC-257 melanoma, more than 100 µM; with SNB-19 CNS, 64.1 µM; with SK-OV-3 ovarian, more than 100 µM. The compound further came in with a TGI in the experiment on RPMI-8226 leukemia of more than 100 µM.

`C/C=C1\CC(C(=O)OCC)CCCCCCC1=O` (stereo not given): the TGI with ACHN renal, in the experiment on SNB-75 CNS, in the experiment with COLO 205 colon, in the experiment on OVCAR-8 ovarian, in the experiment with SN12C renal and with UACC-257 melanoma was more than 100 µM in each case. Also, the TGI with SNB-19 CNS and in the experiment with SK-OV-3 ovarian was more than 100 µM each time.

As for `CC(=O)Nc1ccc(NC(=O)CC(=O)Nc2ccc(NC(C)=O)cc2)cc1`, the TGI with ACHN renal, with COLO 205 colon, in the experiment with OVCAR-8 ovarian, in the experiment on SN12C renal, with UACC-257 melanoma and in the experiment on SNB-19 CNS was more than 100 µM throughout. Moreover, the TGI was 65.9 µM in the experiment on SK-OV-3 ovarian and more than 100 µM with RPMI-8226 leukemia.

As for `COc1ccc(-c2nc(-c3ccc(OC)cc3)n(-c3ccccc3)n2)cc1`, the TGI in the experiment on ACHN renal, in the experiment on SNB-75 CNS, with COLO 205 colon, in the experiment with OVCAR-8 ovarian, in the experiment with SN12C renal and with UACC-257 melanoma was more than 100 µM in each case. Moreover, the TGI in the experiment with SNB-19 CNS and in the experiment with SK-OV-3 ovarian was more than 100 µM each time.

Take `CC(=O)O[C@@H]1[C@H](OC2CCCCC2(c2ccccc2)c2ccccc2)O[N+]([O-])=CC12CCCCC2` (stereo not given in full): the TGI stood at 31.4 µM in the experiment with ACHN renal; 29.4 µM in the experiment with SNB-75 CNS; 33.7 µM in the experiment on COLO 205 colon; 59.2 µM in the experiment on OVCAR-8 ovarian; 35.4 µM in the experiment with SN12C renal; 32 µM in the experiment on UACC-257 melanoma. Also, the TGI in the experiment on SK-OV-3 ovarian was 26.2 µM; in the experiment on RPMI-8226 leukemia, more than 100 µM.

Consider `COc1cc(C2CC(C)(N3CCOCC3)Oc3cc4c(cc32)OCO4)cc(OC)c1OC` (stereo not given), for which the TGI was more than 100 µM in the experiment on ACHN renal; more than 100 µM in the experiment with OVCAR-8 ovarian; more than 100 µM in the experiment with SN12C renal; more than 100 µM in the experiment on UACC-257 melanoma; more than 100 µM in the experiment with SNB-19 CNS; more than 80.5 µM with SK-OV-3 ovarian. The TGI with RPMI-8226 leukemia is 0.151 µM.

Take `Clc1ccc(Nc2ncco2)cc1Cl`: the TGI in the experiment on ACHN renal, with SNB-75 CNS, in the experiment with COLO 205 colon, in the experiment with OVCAR-8 ovarian, in the experiment with SN12C renal and in the experiment on UACC-257 melanoma was more than 10 µM throughout. Besides, the TGI in the experiment on SNB-19 CNS and in the experiment on SK-OV-3 ovarian was more than 10 µM throughout.

For `COc1c(C)c(C/C=C(\C)CC/C=C(\C)CC/C=C(\C)CCC=C(C)C)c(OC)c(OC)c1OC`, the TGI in the experiment with ACHN renal, with SNB-75 CNS, in the experiment with COLO 205 colon, with OVCAR-8 ovarian, in the experiment with SN12C renal and in the experiment on UACC-257 melanoma was more than 100 µM in each case. Moreover, the TGI with SNB-19 CNS and with SK-OV-3 ovarian was more than 100 µM throughout.

For the compound `NC(Cc1ccc(O)cn1)C(=O)NC(C(=O)O)c1ccccc1` (stereo not given), the TGI with ACHN renal, in the experiment with SNB-75 CNS, in the experiment with COLO 205 colon, with OVCAR-8 ovarian, with SN12C renal and in the experiment on UACC-257 melanoma was more than 100 µM throughout. In addition, the TGI with SNB-19 CNS and in the experiment on RPMI-8226 leukemia was more than 100 µM throughout.

Consider `CCOC(=O)NN(C(=O)OCC)c1ccc(N=Nc2ccc(OC)cc2)n1C`, for which the TGI is 58.2 µM with ACHN renal; 46 µM in the experiment on SNB-75 CNS; 41.3 µM in the experiment on COLO 205 colon; more than 100 µM with OVCAR-8 ovarian; more than 100 µM in the experiment with SN12C renal; 56.1 µM with UACC-257 melanoma. Further, the TGI with SK-OV-3 ovarian and in the experiment on RPMI-8226 leukemia was more than 100 µM each time.

Consider `Oc1cc(O)c2c(c1)O[C@H](c1ccc(O)c(O)c1)[C@@H](O)C2`, for which the TGI in the experiment with ACHN renal, with SNB-75 CNS, in the experiment with COLO 205 colon, in the experiment on OVCAR-8 ovarian, in the experiment with SN12C renal and in the experiment with UACC-257 melanoma was more than 100 µM throughout. The TGI in the experiment on SNB-19 CNS and with RPMI-8226 leukemia was more than 100 µM throughout.

Consider `Cc1c(C)c2c(c(C)c1OC(=O)CCC(=O)[O-])CCC(C)(CCCCCCCCCCC[P+](c1ccccc1)(c1ccccc1)c1ccccc1)O2` (stereo not given), for which the GI50 was 0.264 µM in the experiment with ACHN renal; 0.123 µM in the experiment with SNB-75 CNS; 0.175 µM with OVCAR-8 ovarian; 0.165 µM in the experiment on SN12C renal; 0.151 µM in the experiment with UACC-257 melanoma; 0.157 µM with SK-OV-3 ovarian. Moreover, in the experiment with RPMI-8226 leukemia, the GI50 was 0.0151 µM. In addition, the TGI with ACHN renal came out at 0.909 µM; in the experiment on SNB-75 CNS, 0.49 µM; in the experiment with OVCAR-8 ovarian, 0.974 µM; in the experiment with SN12C renal, 0.615 µM; with UACC-257 melanoma, 0.512 µM; in the experiment with SK-OV-3 ovarian, 0.538 µM. Moreover, the TGI in the experiment on RPMI-8226 leukemia stood at 0.148 µM.

For the compound `Cc1ccc(S(=O)(=O)NC(=O)Nc2c(S(N)(=O)=O)cc(S(N)(=O)=O)c(Cl)c2Cl)cc1`, the TGI in the experiment on ACHN renal, with OVCAR-8 ovarian, in the experiment on SN12C renal, with UACC-257 melanoma, in the experiment with SNB-19 CNS and in the experiment with SK-OV-3 ovarian was more than 100 µM throughout. Moreover, the TGI with RPMI-8226 leukemia is more than 100 µM.

`O=[N+]([O-])c1ccc(CSc2nn(Cc3ccc([N+](=O)[O-])cc3)cc3ncnc2-3)cc1`: the TGI in the experiment with ACHN renal, in the experiment on SNB-75 CNS, in the experiment with COLO 205 colon, with OVCAR-8 ovarian, in the experiment with SN12C renal and in the experiment with UACC-257 melanoma was more than 100 µM in each case. Also, the TGI in the experiment on SK-OV-3 ovarian is more than 100 µM; with RPMI-8226 leukemia, 75 µM.
